Measurements: patent US8314130B2, “Compounds inclunding substituted pyridines for inflammation and immune-related uses” (Synta Pharmaceuticals Corp., priority 2008, dated 2012)

Legend:
IL-2 = test: Inhibition of IL-2 production in PHA-activated Jurkat cells (1% FBS), ELISA; format: cell-based; details: Homo sapiens, activity class, read-out: IL-2 current inhibition Jurkat/PHA/1% FBS IC50
Procedure: Jurkat cells were placed in a 96 well plate (0.5 million cells per well in 1% FBS medium), and then a test compound of this invention was added at different concentrations. After 10 minutes, the cells were activated with PHA (final concentration 2.5 μg/mL) and incubated for 20 hours at 37° C. under 5% CO2. The final volume was 200 Following incubation, the cells were centrifuged, and the supernatants collected and stored at −70° C. prior to assaying for IL-2 production. A commercial ELISA kit (IL-2 Eli-pair, Diaclone Research, Besancon, France) was used to detect production of IL-2, from which dose response curves were obtained. The IC50 value was calculated as the concentration at which 50% of maximum IL-2 production after stimulation was inhibited versus a non-stimulation control.

CRACM1/STIM1 = target: T1, CRACM1/STIM1 (Homo sapiens, UniProt Q96D31); test: ICRAC current inhibition in CRACM1/STIM1-CHOK1 cells (patch clamp); format: cell-based; details: 500 nM, activity class
T1 construct: Full length human Stim1, CracM1, CracM2 and CracM3 cDNA
T1 sequence (Q96D31 whole entry): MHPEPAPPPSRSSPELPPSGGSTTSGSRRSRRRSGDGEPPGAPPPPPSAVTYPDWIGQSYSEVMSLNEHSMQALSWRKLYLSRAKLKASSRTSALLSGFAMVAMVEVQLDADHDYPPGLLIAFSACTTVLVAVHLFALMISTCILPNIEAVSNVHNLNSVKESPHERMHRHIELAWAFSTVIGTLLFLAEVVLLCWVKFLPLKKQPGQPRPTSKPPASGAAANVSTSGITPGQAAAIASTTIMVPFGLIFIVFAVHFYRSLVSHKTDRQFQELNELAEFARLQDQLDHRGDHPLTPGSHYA
Procedure: Manual patch clamp experiments are conducted in the tight-seal whole-cell configuration at room temperature (21-25° C.). Patch pipettes are fashioned from borosilicate glass capillary tubes and have resistances between 2-4 MO after filling with standard intracellular solution. High resolution current recordings are acquired with a computer-based patch clamp amplifier system (EPC-10, HEKA, Lambrecht, Germany). All voltages are corrected for a liquid junction potential of 10 mV between external and internal solutions with glutamate as the intracellular anion. Currents are filtered at 2.9 kHz and digitized at 10 μs intervals. Capacitive currents and series resistance are determined and corrected before each voltage ramp using the automatic capacitance compensation of the EPC-10.
Automated patch clamp experiments are conducted with the QPatch 16 (Sophion Bioscience, Ballerup, Denmark) at room temperature (21-25° C.). Immediately following the establishment of giga-seal whole-cell configuration, the cells membrane potential is clamped at 0 mV. Voltage ramps of 50 ms duration spanning the voltage range of −100 to +100 mV are then stimulated at a rate of 0.33 Hz. Currents are filtered at 2.9 kHz and digitized at 200 μs intervals. Capacitive currents and series resistance are determined and corrected before each voltage ramp using the automatic capacitance compensation.
In general, a whole cell patch clamp method is used to examine the effects of a compound of the invention on a channel(s) that mediates ICRAC. In such experiments, a baseline ICRAC measurement is established within the first 70 voltage ramps, or 140 seconds, for a patched cell. Then the cells are perfused with the compound to be tested and the effect of the compound on ICRAC is measured for at least an additional 440 to 500 seconds. A compound that modulates ICRAC (e.g., inhibits) is a compound that is useful in the invention for modulating CRAC ion channel activity.
ICRAC currents are measured using 50 msec voltage ramps between −100 mV to +100 mV. The voltage ramps are stimulated every 2 seconds for the first 70 sweeps, then every 5 seconds for the remainder of the experiment. The membrane potential is held at 0 mV between the test ramps. In a typical experiment, the peak inward currents will develop within 50-100 seconds. Once the ICRAC current is stabilized, the cells are perfused with a test compound in the extracellular solution for at least an additional 500 seconds.
Off-line analysis with the Heka PatchMaster software is used to separate the ICRAC membrane current from the cells basal background currents. In a typical recording, InsP3 stimulated ICRAC currents begin to develop in 6 to 12 seconds after whole cell is established. Therefore, the first 1-4 voltage ramps represent the basal membrane currents in the absence of ICRAC and the average value is subtracted from all subsequent traces. The current value at −80 mV for each ramp trace is then measured and plotted against time. The resulting current versus time data is exported into a Microsoft Excel spreadsheet. The % ICRAC inhibition in each cell is calculated by comparing the amount of current just prior to the compound perfusion to the amount of current after the cells has been perfused with the compound for 440-500 seconds. The IC50 value and Hill coefficient for each compound is estimated by fitting all the individual data points to a single-site Hill equation.
TREx™-CHO cells were transfected with human Stim1 (recombinant DNA in pcDNA4/TO/myc-His™ A with a myc epitope tag in the N-terminal) and either CracM1, CracM2 or CracM3 (recombinant DNA in pcDNA 3.1 with a HA epitope tag in the N-terminal). Stably expressing cells were selected by growing the transfected cells in antibiotics for two to three weeks. Individual cell clones were isolated via serial dilution. […]

IC50 (IL-2) [µM] | inhibition at 0.5 µM (CRACM1/STIM1) [%] | Compound
< 0.05 | 70 to 100 | Cc1cc(CCc2cccnc2)sc1-c1ccc(NC(=O)c2c(F)cccc2F)cc1 [Compound 8, 2,6-difluoro-N-(4-(3-methyl-5-(2-(pyridin-3-yl)ethyl)thiophen-2-yl)phenyl)benzamide]
< 0.05 | 50 to 70 | CC(C)c1sc(-c2cccnc2)cc1-c1ccc(NC(=O)c2c(F)cccc2F)cc1 [Compound 15, 2,6-difluoro-N-(4-(2-isopropyl-5-(pyridin-3-yl)thiophen-3-yl)phenyl)benzamide]
< 0.05 | < 50 | CC(C)c1sc(-c2cccnc2)nc1-c1ccc(NC(=O)c2c(F)cccc2F)nc1 [C]
< 0.05 | 70 to 100 | Cc1cc(C(=O)c2cccnc2)sc1-c1ccc(NC(=O)c2c(F)cccc2F)cc1 [Compound 6, 2,6-difluoro-N-(4-(3-methyl-5-nicotinoylthiophen-2-yl)phenyl)benzamide]
< 0.05 | < 50 | C=C(C)c1sc(-c2cccnc2)cc1-c1ccc(NC(=O)c2c(F)cccc2F)cc1 [Compound 14, 2,6-difluoro-N-(4-(2-(prop-1-en-2-yl)-5-(pyridin-3-yl)thiophen-3-yl)phenyl)benzamide]
